{"source": "patent US20050112128A1", "about": "“Inhibition of protein kinase c-mu (PKD) as a treatment for cardiac hypertrophy and heart failure” (Myogen, Inc. and Board of Regents, The University of Texas …, priority 2003, published 2005)", "key": {"ras transformed cells": {"test_system": "ras transformed cells", "details": "Taunton et al., 1996; cited from earlier work"}, "[1]": {"details": "Takahashi et al., 1996; cited from earlier work"}, "NRVMs": {"test_system": "NRVMs", "assay": "ANF immunostaining of cardiomyocytes (hypertrophy marker)", "format": "cell-based, rat", "details": "PE 20 μM or PMA 100 nM, 24 hrs", "procedure": "FIGS. 3A-C—Inhibition of PKC-mediated cardiac hypertrophy by signalresistant HDAC5. NRVMs were cultured on 6-well dishes and infected with adenoviruses (MOI=10) encoding a LacZ control (Ad-LacZ) or FLAG-tagged HDAC5 harboring alanines in place of serines 259 and 498 (Ad-HDAC5 S/A), which are required for 14-3-3-mediated nuclear export. Cells were treated with PE (20 μM) or PMA (100 nM) for 24 hrs prior to analysis. FIG. 3A. Cells were fixed and sarcomeres visualized by indirect immunofluorescence with primary antibody specific for α-actinin and fluorescein-conjugated secondary antibody. FIG. 3B. ANF protein was detected by indirect immunofluorescence with anti-ANF primary antibody. FIG. 3C. Total RNA was harvested from cells and subjected to dot blot analysis with radiolabeled oligonucleotides specific for the indicated transcripts. RNA levels were quantified using a phosphorimager and are depicted as -fold change relative to amounts in unstimulated cells infected with Ad-LacZ. Values were normalized to GAPDH controls.\nCell culture and transfection assays. COS cells were maintained in DMEM with FBS (10%), L-glutamine (2 mM), and penicillin-streptomycin. Transfection of COS cells was performed with Fugene 6 (Roche Molecular Biochemicals) according to manufacturer's instructions. […]"}, "endogenous PKD": {"test_system": "endogenous PKD", "assay": "Co-immunoprecipitation of endogenous PKD with HDAC5 in NRVMs (total PKD and p-916 immunoblot)", "format": "cell-based, rat", "details": "PE 20 μM 1 hr, absence or presence of Bis I 10 μM"}, "[2]": {"test_system": "nuclear export of GFP-HDAC5 in NRVMs", "assay": "Quantitative HDAC5 nuclear export assay in NRVMs (Cellomics High Content Imaging System)", "format": "cell-based, rat", "details": "2 hrs"}, "[3]": {"test_system": "association of HDAC5 and 14-3-3", "assay": "Immunoprecipitation/immunoblotting of HDAC5 and 14-3-3 in NRVMs", "format": "cell-based, rat", "details": "inhibitor 10 μM, 1 hr before PE (20 μM) or ET-1 (50 nM) for 1 hr"}, "PKD": {"target": "T1, PKD (Homo sapiens, UniProt Q15139)", "T1 sequence (Q15139 1-912)": "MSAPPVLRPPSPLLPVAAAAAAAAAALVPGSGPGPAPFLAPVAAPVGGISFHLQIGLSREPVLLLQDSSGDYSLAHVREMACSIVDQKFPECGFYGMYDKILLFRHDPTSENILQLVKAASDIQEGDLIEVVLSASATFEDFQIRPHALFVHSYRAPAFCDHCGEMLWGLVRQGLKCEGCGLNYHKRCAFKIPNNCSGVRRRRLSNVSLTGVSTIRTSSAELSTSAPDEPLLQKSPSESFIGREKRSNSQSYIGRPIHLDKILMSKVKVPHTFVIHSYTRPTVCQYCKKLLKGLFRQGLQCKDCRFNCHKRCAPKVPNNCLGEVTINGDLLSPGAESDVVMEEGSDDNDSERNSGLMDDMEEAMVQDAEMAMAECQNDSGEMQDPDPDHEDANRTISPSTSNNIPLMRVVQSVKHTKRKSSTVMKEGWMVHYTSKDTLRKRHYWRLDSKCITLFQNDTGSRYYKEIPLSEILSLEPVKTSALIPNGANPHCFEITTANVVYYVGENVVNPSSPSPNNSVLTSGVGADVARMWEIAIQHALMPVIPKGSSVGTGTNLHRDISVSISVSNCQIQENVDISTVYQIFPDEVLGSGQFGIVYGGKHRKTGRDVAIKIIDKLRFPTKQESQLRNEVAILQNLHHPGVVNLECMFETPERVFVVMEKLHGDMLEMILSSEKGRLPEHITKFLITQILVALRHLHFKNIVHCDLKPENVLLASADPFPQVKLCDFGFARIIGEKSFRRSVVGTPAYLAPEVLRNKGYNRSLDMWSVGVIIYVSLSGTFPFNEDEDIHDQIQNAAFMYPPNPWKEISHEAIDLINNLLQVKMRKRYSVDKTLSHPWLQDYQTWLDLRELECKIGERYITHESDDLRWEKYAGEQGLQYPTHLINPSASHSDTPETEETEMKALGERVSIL", "details": "literature (Van Lint 2002; Gschwendt 1996; Haworth); cited from earlier work"}, "HDAC5-bound PKD": {"target": "T2, HDAC5-bound PKD (Rattus norvegicus, UniProt Q9WTQ1)", "T2 construct": "Association of endogenous PKD with HDAC5 in cardiomyocytes; endogenous in cells; host or cells: neonatal rat ventricular myocytes; the kinase co-precipitated with adenoviral FLAG-HDAC5", "T2 sequence (Q9WTQ1 1-918)": "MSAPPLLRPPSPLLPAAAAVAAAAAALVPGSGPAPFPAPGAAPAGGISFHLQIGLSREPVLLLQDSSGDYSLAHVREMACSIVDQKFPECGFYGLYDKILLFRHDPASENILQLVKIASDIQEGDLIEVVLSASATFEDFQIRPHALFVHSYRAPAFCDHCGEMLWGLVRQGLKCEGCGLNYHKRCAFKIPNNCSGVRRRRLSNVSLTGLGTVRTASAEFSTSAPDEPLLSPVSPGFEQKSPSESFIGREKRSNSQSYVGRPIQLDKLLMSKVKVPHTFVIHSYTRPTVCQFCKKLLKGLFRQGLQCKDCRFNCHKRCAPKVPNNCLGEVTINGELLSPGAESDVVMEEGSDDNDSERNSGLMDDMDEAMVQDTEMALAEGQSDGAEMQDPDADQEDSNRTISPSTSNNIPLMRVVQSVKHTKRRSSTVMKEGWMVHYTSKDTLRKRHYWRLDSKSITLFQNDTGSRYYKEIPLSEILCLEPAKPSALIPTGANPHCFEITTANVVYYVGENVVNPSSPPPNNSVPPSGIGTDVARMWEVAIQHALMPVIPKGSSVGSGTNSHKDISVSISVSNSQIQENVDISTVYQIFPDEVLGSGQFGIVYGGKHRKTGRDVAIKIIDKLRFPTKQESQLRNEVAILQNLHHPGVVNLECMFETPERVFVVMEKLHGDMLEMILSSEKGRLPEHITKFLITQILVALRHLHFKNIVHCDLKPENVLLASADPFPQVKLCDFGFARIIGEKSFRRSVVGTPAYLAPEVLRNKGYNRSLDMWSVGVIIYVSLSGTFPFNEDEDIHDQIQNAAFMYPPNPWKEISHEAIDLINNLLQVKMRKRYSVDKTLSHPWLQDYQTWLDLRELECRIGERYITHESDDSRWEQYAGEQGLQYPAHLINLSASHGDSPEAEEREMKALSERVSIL", "format": "biochemical", "details": "10 μM inhibitor in kinase reaction mixture (post)"}}, "note": "Entries after “also recorded” stand apart in the source; their conditions may differ."}
{"smiles": "CC(/C=C/C(=O)NO)=C\\[C@@H](C)C(=O)c1ccc(N(C)C)cc1", "note": "[Trichostatin A]", "values": [{"measurement": "effect on acetylation and morphology of ras transformed cells", "setting": "ras transformed cells", "value": "induce hyperacetylation and cause reversion of ras transformed cells to normal morphology"}, {"measurement": "immunosuppression in a mouse model", "setting": "[1]", "value": "induces immunsuppression in a mouse model"}]}
{"smiles": "CNC[C@H](O)c1cccc(O)c1", "note": "[PE, phenylephrine]", "values": [{"measurement": "ANF protein expression", "setting": "NRVMs", "value": "prominent perinuclear ANF protein expression"}, {"measurement": "activation of HDAC5-associated PKD", "setting": "endogenous PKD", "value": "became activated in a PKC-dependent manner"}, {"measurement": "agonist-triggered nuclear export of HDAC5 in cardiomyocytes", "setting": "[2]; NRVMs infected with Ad-GFP-HDAC5, PE 0.1 to 20 μM, ET-1 50 nM, FBS 10%", "value": "triggered nuclear export of HDAC5 in a concentration-dependent manner; also recorded: triggered dose-dependent nuclear export of HDAC5"}]}
{"smiles": "Cn1c2ccccc2c2c3c(c4c5ccccc5n(CCC#N)c4c21)CNC3=O", "note": "[Gö6976]", "values": [{"measurement": "block of association of HDAC5 and 14-3-3", "setting": "[3]", "value": "blocked association of HDAC5 and 14-3-3 in response to both PE and ET-1"}, {"measurement": "sensitivity of PKD to the inhibitor", "setting": "PKD", "value": "sensitive to Gö6976"}, {"measurement": "block of ET-1-induced nuclear export of HDAC5", "setting": "[2]; NRVMs, ET-1 50 nM, inhibitor pre-treatment 30 min", "value": "efficiently blocked nuclear export of HDAC5"}, {"measurement": "block of FBS-induced nuclear export of HDAC5", "setting": "[2]; NRVMs, FBS 10%, inhibitor pre-treatment 30 min", "value": "efficiently blocked nuclear export of HDAC5"}, {"measurement": "block of PE-induced nuclear export of HDAC5", "setting": "[2]; NRVMs, PE 20 μM, inhibitor pre-treatment 30 min, KN93, wortmannin, staurosporine 1 mM, U1026, HA1077, Y-27632, DAG Kinase inhibitor II, SB216763, Bis I 10 mM, rapamycin 30 ng/ml, Gö6983 10 μM", "value": "efficiently blocked nuclear export of HDAC5"}, {"measurement": "block of HDAC5 phosphorylation, inhibitor added directly to kinase reaction", "setting": "HDAC5-bound PKD", "value": "blocked phosphorylation of HDAC5; also recorded: blocked phosphoryl transfer to HDAC5"}]}
